Test results as given in US5567692A, “9-[(substituted glycyl) amido)]-6-demethyl-6-deoxytetracyclines” (priority 1995, dated 1996).
≈ marks a conversion by molar mass, not a printed value. Structures can show the parent of a compound that is named as a salt. Where two headings read alike, the source gives them in different places.

Legend:
Type in all cases: cell-based
[1] = test system: E. coli MC 4100 Tet sens.; assay: MIC, agar dilution; conditions: Escherichia coli, 18 h
E. coli J3272 Tet C = assay: microbe, parasite or virus in culture; conditions: Escherichia coli, J3272TETC, 18 h
S. aureus UBMS 88-4 = assay: MIC, agar dilution; conditions: Staphylococcus aureus, UBMS884, 18 h
E. coli BAJ9003 IMP MUT = assay: microbe, parasite or virus in culture; conditions: Escherichia coli, BAJ9003IMPMUT, 18 h
E. coli PRP1 Tet A = assay: microbe, parasite or virus in culture; conditions: Escherichia coli, PRP1TETA, 18 h
[2] = test system: S. aureus UBMS 88-7 Tet K; assay: microbe, parasite or virus in culture; conditions: Staphylococcus aureus, UBMS887TETK, 18 h
S. aureus ATCC 29213 = assay: MIC, agar dilution; conditions: Staphylococcus aureus, ATCC29213, 18 h, S. aureus ATCC 29213
E. coli ATCC 25922 = assay: MIC, agar dilution; conditions: Escherichia coli, ATCC25922, 18 h
E. coli J3272 Tet D = assay: microbe, parasite or virus in culture; conditions: Escherichia coli, J3272TETD, 18 h
S. aureus IVES 1983 = assay: MIC, agar dilution; conditions: Staphylococcus aureus, IVES1983, 18 h
S. aureus UBMS 90-3 = assay: MIC, agar dilution; conditions: Staphylococcus aureus, UBMS903, 18 h
S. aureus SMITH (MP) = assay: MIC, agar dilution; conditions: Staphylococcus aureus, 18 h
E. faecalis ATCC 29212 = assay: MIC, agar dilution; conditions: Enterococcus faecalis, ATCC29212, 18 h
E. coli #311 (MP) = assay: MIC, agar dilution; conditions: Escherichia coli, 18 h
S. aureus NEMC 8769 = assay: MIC, agar dilution
[3] = test system: S. aureus UBMS 90-2 Tet M; assay: microbe, parasite or virus in culture; conditions: Staphylococcus aureus, UBMS902TETM, 18 h
S. marcescens FPOR 8733 = assay: MIC, agar dilution; conditions: Serratia marcescens, FPOR8733, 18 h
S. aureus IVES 2943 = assay: MIC, agar dilution; conditions: Staphylococcus aureus, IVES2943, 18 h
[4] = test system: S. aureus UBMS 90-1 Tet M; assay: microbe, parasite or virus in culture; conditions: Staphylococcus aureus, UBMS901TETM, 18 h
[5] = test system: E. coli MC 4100 TNIOC Tet B; assay: microbe, parasite or virus in culture; conditions: Escherichia coli, 18 h
[6] = test system: Ps. aeruginosa ATCC 27853; assay: MIC, agar dilution; conditions: Pseudomonas aeruginosa, ATCC27853, 18 h
[7] = test system: E. coli UBMS 89-2 Tet sens.; assay: MIC, agar dilution; conditions: Escherichia coli, 18 h
S. aureus ROSE (MP) = assay: MIC, agar dilution; conditions: Staphylococcus aureus, 18 h
Enterococcus 12201 = assay: MIC, agar dilution; conditions: Enterococcus, 12201, 18 h
E. coli UBMS 89-1 Tet M = assay: microbe, parasite or virus in culture; conditions: Escherichia coli, UBMS891TETM, 18 h
[8] = test system: S. aureus UBMS 88-5 Tet M; assay: microbe, parasite or virus in culture; conditions: Staphylococcus aureus, UBMS885TETM, 18 h
E. coli UBMS 90-4 Tet M = assay: microbe, parasite or virus in culture; conditions: Escherichia coli, UBMS904TETM, 18 h
E. coli UBMS 90-5 = assay: microbe, parasite or virus in culture; conditions: Escherichia coli, UBMS905, 18 h, E. coli UBMS 90-5; read-out: MIC
[9] = test system: S. hemolyticus AVHAH 88-3; assay: MIC, agar dilution; conditions: Streptococcus pyogenes, AVHAH883, 18 h
E. coli J2175 = assay: MIC, agar dilution; conditions: Escherichia coli, 18 h, read-out: MIC
[10] = test system: X. maltophilia NEMC 87210; assay: MIC, agar dilution; conditions: Stenotrophomonas maltophilia, NEMC87210, 18 h
E. coli UBMS 88-1 Tet B = assay: microbe, parasite or virus in culture; conditions: Escherichia coli, UBMS881TETB, 18 h
[11] = E. faecalis ATCC 29212, read-out: MIC
[12] = Staphylococcus aureus, NEMC8769, 18 h, read-out: MIC
[13] = Ps. aeruginosa ATCC 27853, read-out: MIC
[14] = S. hemolyticus AVHAH 88-3, read-out: MIC
[15] = S. aureus SMITH (MP), read-out: MIC
[16] = Enterococcus 12201, read-out: MIC
[17] = X. maltophilia NEMC 87210, read-out: MIC

| SMILES | MIC [1] | MIC (E. coli J3272 Tet C) | MIC (S. aureus UBMS 88-4) | MIC (E. coli BAJ9003 IMP MUT) | MIC (E. coli PRP1 Tet A) | MIC [2] | MIC (S. aureus ATCC 29213; read-out: MIC) | MIC (E. coli J3272 Tet D) | MIC (S. aureus IVES 1983) | MIC (E. coli #311 (MP)) | MIC [3] | MIC [4] | MIC [5] | MIC [7] | MIC (E. coli UBMS 89-1 Tet M) | MIC [8] | MIC (E. coli UBMS 90-4 Tet M) | MIC (E. coli UBMS 90-5) | MIC (E. coli J2175) | MIC (E. coli UBMS 88-1 Tet B) | also measured |
| --- | --- | --- | --- | --- | --- | --- | --- | --- | --- | --- | --- | --- | --- | --- | --- | --- | --- | --- | --- | --- | --- |
| CN(C)[C@@H]1C(O)=C(C(N)=O)C(=O)[C@@]2(O)C(O)=C3C(=O)c4c(ccc(NC(=O)CN5CCCCC5)c4O)CC3CC12 (stereo partly drawn) [I, [7S-(7alpha,10aalpha)]-N-9-(Aminocarbonyl)-7-(dimethylamino)-5,5a,6,6a,7,10,10a,12-octahydro-1,8,10a,11-tetrahydroxy-10,12-dioxo-1-piperidineacetamide dihydrochloride] | 0.25 µg/mL | 1 µg/mL | 0.5 µg/mL | 0.12 µg/mL | 1 µg/mL | 0.5 µg/mL | 0.5 µg/mL | 0.5 µg/mL | 1 µg/mL | 0.5 µg/mL | 0.25 µg/mL | 0.5 µg/mL | 1 µg/mL | 0.5 µg/mL | 0.25 µg/mL | 0.5 µg/mL | 0.5 µg/mL | 0.5 µg/mL | 0.5 µg/mL | 1 µg/mL | MIC (E. coli ATCC 25922): 0.5 µg/mL; MIC (S. aureus UBMS 90-3): 0.25 µg/mL; MIC (S. aureus SMITH (MP)): 0.25 µg/mL; MIC (E. faecalis ATCC 29212; [11]): 0.25 µg/mL; MIC (S. aureus NEMC 8769; [12]): 0.5 µg/mL; MIC (S. marcescens FPOR 8733): 8 µg/mL; MIC (S. aureus IVES 2943): 1 µg/mL; MIC [6, 13]: > 32 µg/mL; MIC (S. aureus ROSE (MP); read-out: MIC): 4 µg/mL; MIC (Enterococcus 12201): 0.25 µg/mL; MIC [9, 14]: 2 µg/mL; MIC [10]: 0.5 µg/mL |
| CC1CCN(CC(=O)Nc2ccc3c(c2O)C(=O)C2=C(O)[C@]4(O)C(=O)C(C(N)=O)=C(O)[C@@H](N(C)C)C4CC2C3)CC1 (stereo partly drawn) [A, [7S-(7alpha,10aalpha)]-N-(9-(Aminocarbonyl)-7-(dimethylamino)-5,5a,6,6a,7,10,10a,12-octahydro-1,8,10a,11-tetrahydroxy-10,12-dioxo-2-naphthacenyl]-4-methyl-1-piperidineacetamide dihydrochloride] | 0.25 µg/mL | 1 µg/mL | 0.5 µg/mL | 0.12 µg/mL | 1 µg/mL | 1 µg/mL | 0.5 µg/mL | 0.25 µg/mL | 1 µg/mL | 0.25 µg/mL | 0.5 µg/mL | 1 µg/mL | 1 µg/mL | 0.5 µg/mL | 0.25 µg/mL | 0.5 µg/mL | 0.5 µg/mL | 0.5 µg/mL | 0.5 µg/mL | 1 µg/mL | MIC (E. coli ATCC 25922; read-out: MIC): 0.25 µg/mL; MIC (S. aureus UBMS 90-3): 0.5 µg/mL; MIC (S. aureus SMITH (MP); [15]): 0.5 µg/mL; MIC (E. faecalis ATCC 29212): 0.25 µg/mL; MIC (S. aureus NEMC 8769): no growth; MIC (S. marcescens FPOR 8733): 8 µg/mL; MIC (S. aureus IVES 2943; S. aureus IVES 2943, read-out: MIC): 0.5 µg/mL; MIC [6, 13]: > 32 µg/mL; MIC (S. aureus ROSE (MP); read-out: MIC): 2 µg/mL; MIC (Enterococcus 12201; [16]): 0.5 µg/mL; MIC [9]: 2 µg/mL; MIC [10, 17]: 0.5 µg/mL |
| CN(C)[C@@H]1C(O)=C(C(N)=O)C(=O)[C@@]2(O)C(O)=C3C(=O)c4c(ccc(NC(=O)CNCc5ccccn5)c4O)CC3CC12 (stereo partly drawn) [N, [4S-(4alpha,12aalpha)]-4-(Dimethylamino)-1,4,4a,5,5a,6,11,12a-octahydro-3,10,12,12a-tetrahydroxy-1,11-dioxo-9-[[[(2-pyridinylmethyl]amino]acetyl]amino]-2-naphthacenecarboxamide dihydrochloride] | 8 µg/mL | > 32 µg/mL | 8 µg/mL | 2 µg/mL | 32 µg/mL | > 32 µg/mL |  | 32 µg/mL | > 32 µg/mL | 32 µg/mL | 8 µg/mL | 8 µg/mL | 32 µg/mL | 32 µg/mL | 16 µg/mL | 8 µg/mL | 16 µg/mL | 32 µg/mL | > 32 µg/mL | > 32 µg/mL | MIC (S. aureus ATCC 29213): 8 µg/mL; MIC (E. coli ATCC 25922): 32 µg/mL; MIC (S. aureus UBMS 90-3; S. aureus UBMS 90-3, read-out: MIC): 4 µg/mL; MIC (S. aureus SMITH (MP); [15]): 4 µg/mL; MIC (E. faecalis ATCC 29212; [11]): 4 µg/mL; MIC (S. aureus NEMC 8769; Staphylococcus aureus, NEMC8769, 18 h): 8 µg/mL; MIC (S. marcescens FPOR 8733): > 32 µg/mL; MIC (S. aureus IVES 2943): > 32 µg/mL; MIC [6]: > 32 µg/mL; MIC (S. aureus ROSE (MP)): > 32 µg/mL; MIC (Enterococcus 12201): 8 µg/mL; MIC [9]: > 32 µg/mL; MIC [10]: > 32 µg/mL |
| CN(C)CC(=O)Nc1ccc2c(c1O)C(=O)C1=C(O)[C@]3(O)C(=O)C(C(=O)NCN4CCCC4)=C(O)[C@@H](N(C)C)C3CC1C2 (stereo partly drawn) [EE, [4S-(4alpha,12aalpha)]-4-(Dimethylamino)-9-[[(dimethylamino)acetyl]amino]-1,4,4a,5,5a,6,11,12a-octahydro-3,10,12,12a-tetrahydroxy-1,11-dioxo-N-(l-pyrrolidinylmethyl)-2-naphthacenecarboxamide] | 0.12 µg/mL (≈ 0.201 µM) | 1 µg/mL (≈ 1.67 µM) | 0.25 µg/mL (≈ 0.418 µM) | 0.12 µg/mL (≈ 0.201 µM) | 2 µg/mL (≈ 3.35 µM) | 1 µg/mL (≈ 1.67 µM) | 0.25 µg/mL (≈ 0.418 µM) | 0.25 µg/mL (≈ 0.418 µM) | 2 µg/mL (≈ 3.35 µM) | 0.5 µg/mL (≈ 0.837 µM) | 0.25 µg/mL (≈ 0.418 µM) | 0.25 µg/mL (≈ 0.418 µM) | 0.5 µg/mL (≈ 0.837 µM) | 0.5 µg/mL (≈ 0.837 µM) | 0.25 µg/mL (≈ 0.418 µM) | 0.25 µg/mL (≈ 0.418 µM) | 0.25 µg/mL (≈ 0.418 µM) | 0.25 µg/mL (≈ 0.418 µM) | 0.5 µg/mL (≈ 0.837 µM) | 0.5 µg/mL (≈ 0.837 µM) | MIC (E. coli ATCC 25922): 0.25 µg/mL (≈ 0.418 µM); MIC (S. aureus UBMS 90-3; S. aureus UBMS 90-3): 0.12 µg/mL (≈ 0.201 µM); MIC (S. aureus SMITH (MP); [15]): 0.25 µg/mL (≈ 0.418 µM); MIC (E. faecalis ATCC 29212; [11]): 0.12 µg/mL (≈ 0.201 µM); MIC (S. aureus NEMC 8769; [12]): 0.25 µg/mL (≈ 0.418 µM); MIC (S. marcescens FPOR 8733; read-out: MIC): 4 µg/mL (≈ 6.69 µM); MIC (S. aureus IVES 2943): 2 µg/mL (≈ 3.35 µM); MIC [6, 13]: 16 µg/mL (≈ 26.8 µM); MIC (S. aureus ROSE (MP)): 8 µg/mL (≈ 13.4 µM); MIC (Enterococcus 12201; [16]): 0.25 µg/mL (≈ 0.418 µM); MIC [9, 14]: 0.5 µg/mL (≈ 0.837 µM); MIC [10, 17]: 2 µg/mL (≈ 3.35 µM) |
